Paper PMC3420821 (Chemistry & biology, 2011)

Key:
CB2 receptor mRNA = assay: qPCR of CB2 receptor mRNA in primary microglia; assay type: cell-based, mouse; settings: 72 hr
CB2 receptors [1] = biological target: T1, CB2 receptors (Mus musculus, UniProt P47936); assay: NIR-mbc94 binding competition in intact BV-2 cells; settings: read-out: Ki (competition for NIR-mbc94 binding)
CB2 receptors [2] = settings: ref Rinaldi-Carmona et al., 1998; cited from earlier work
CB2 receptors [3] = biological target: T1, CB2 receptors; assay type: binding; settings: saturation, homogenates of CB2-mid DBT cells

T1 sequence (P47936 whole entry): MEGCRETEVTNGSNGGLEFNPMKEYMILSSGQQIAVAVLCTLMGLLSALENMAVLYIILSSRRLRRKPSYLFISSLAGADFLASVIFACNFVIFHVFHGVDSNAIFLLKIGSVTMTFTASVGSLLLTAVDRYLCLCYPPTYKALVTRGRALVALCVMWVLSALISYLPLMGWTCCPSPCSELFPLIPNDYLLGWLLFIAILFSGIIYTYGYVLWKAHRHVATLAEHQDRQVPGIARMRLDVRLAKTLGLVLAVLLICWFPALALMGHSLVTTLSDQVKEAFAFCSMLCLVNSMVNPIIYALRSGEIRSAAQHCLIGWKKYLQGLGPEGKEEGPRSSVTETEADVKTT

For “IL-4: cytokine that promotes alternative activation phenotype in macrophages/microglia”, the “increase of CB2 receptor mRNA” value (CB2 receptor mRNA) was ~ 5 fold.

For Cc1c(C(=O)c2cccc3ccccc23)c2cccc3c2n1[C@H](CN1CCOCC1)CO3 [WIN55212-2], the Ki (CB2 receptors [1]) was 3 nM.

With TGFβ the “effect on CB2 receptor expression (mRNA)” value (CB2 receptor mRNA) was “did not affect”.

For SR144528, the “affinity at CB2 receptors” value (CB2 receptors [2]) is listed as “nanomolar affinity”.

With CCCCCCC(C)(C)c1ccc([C@@H]2C[C@H](O)CC[C@H]2CCCO)c(O)c1 [[^3H]-CP-55,940] the Kd (CB2 receptors [3]; read-out: Kd of [3H]-CP-55,940) was 3.1 nM and the “Bmax of [3H]-CP-55,940” value (CB2 receptors [3]) was 6 pmol/mg.
